Read-outs that look alike come from different tables or passages of the source.
What was measured:
[1] = tested on: A549 (lung carcinoma cell line); experiment: MTT cell viability assay, A549; type: cell-based; conditions: Homo sapiens
Method: (§1) The anticancer activity of compounds 4a–l were screened according to the MTT assays. The MTT assays were performed as previously described.[3] Anticancer activity of final compounds was assessed against […] A549 (lung carcinoma cell line) and C6 (rat glioma cell line) cell lines.

[2] = tested on: C6 (rat glioma cell line); experiment: MTT cell viability assay, C6; type: cell-based
Method: as §1

[3] = tested on: NIH3T3 (mouse embryo fibroblast cell line); experiment: MTT cell viability assay, NIH3T3 healthy cells; type: cell-based
DNA topoisomerase I = biological target: T1, DNA topoisomerase I (Homo sapiens, UniProt P11387); experiment: DNA topoisomerase I assay (TopoGen kit, relaxation of supercoiled plasmid DNA, agarose gel); type: biochemical; conditions: supercoiled plasmid DNA pHOT 1, 30 min at 37 °C
T1 construct: purchased TopoGen TG1018–2
T1 sequence (P11387 1-765): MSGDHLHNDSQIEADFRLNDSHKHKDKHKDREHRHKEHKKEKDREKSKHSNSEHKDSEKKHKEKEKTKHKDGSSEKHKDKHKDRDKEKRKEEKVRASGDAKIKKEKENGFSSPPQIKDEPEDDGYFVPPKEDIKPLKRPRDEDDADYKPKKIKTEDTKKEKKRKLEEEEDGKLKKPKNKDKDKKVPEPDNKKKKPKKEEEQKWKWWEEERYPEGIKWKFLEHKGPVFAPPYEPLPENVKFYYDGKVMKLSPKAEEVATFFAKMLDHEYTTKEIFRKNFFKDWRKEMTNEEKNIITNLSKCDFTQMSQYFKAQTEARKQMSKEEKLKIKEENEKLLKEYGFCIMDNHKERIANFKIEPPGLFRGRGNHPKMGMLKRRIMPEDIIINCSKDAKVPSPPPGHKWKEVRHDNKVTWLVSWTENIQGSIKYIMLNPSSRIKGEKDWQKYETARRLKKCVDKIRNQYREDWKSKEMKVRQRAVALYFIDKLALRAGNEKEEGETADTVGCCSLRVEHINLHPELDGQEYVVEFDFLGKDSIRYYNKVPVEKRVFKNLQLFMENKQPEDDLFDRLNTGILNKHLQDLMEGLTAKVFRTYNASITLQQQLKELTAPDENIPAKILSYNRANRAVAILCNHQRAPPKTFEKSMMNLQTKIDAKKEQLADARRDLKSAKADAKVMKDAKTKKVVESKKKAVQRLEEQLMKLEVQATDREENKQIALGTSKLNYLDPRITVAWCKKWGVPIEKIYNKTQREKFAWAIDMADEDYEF
Method: Topogen’s Topoisomerase I Drug Screening Kit was used to investigate the topoisomerase I effects of the compounds. With this kit, it is determined whether the compounds that inhibit Topo I activity act as catalytic inhibitors or topoisomerase poisons. Topoisomerase I inhibition activities of compounds 4b, 4h, Hoechst 33342, and camptothecin were evaluated in vitro and the analysis of the reaction products was visualized by the electrophoresis method. Supercoiled plasmid DNA (pHOT 1) was used as the control group. As another control group, plasmid DNA and topoisomerase I were used to ensure that the DNA became relaxed. Hoechst 33342, known as a topoisomerase poison, and camptothecin were used as positive controls.
Using agarose gel electrophoresis, the topoisomerase I inhibitory activities of the final compounds were assessed by measuring the relaxation of supercoiled plasmid DNA. A positive control, camptothecin, was used. A final volume of 20 μL reaction volume was used for the experiment, which contained 2 μL of 10× TGS buffer, […], 2 μL of supercoiled plasmid DNA, 2 μL of the test compound, 2 μL of Topo I, 2 μl of 10% SDS, 2 μL of proteinase K, and 2 μL of the DNA loading dye. Following a 30 min incubation period at 37 °C, the reaction mixtures were electrophoresed using 1× TAE buffer for 75 min at a potential of 50 V on a 1% agarose gel.[25]

Topo II = tested on: Topo II; design: method as in PMID 35870412; conditions: read-out: IC50 Topo II enzyme inhibition; cited from earlier work

Row | Compound | IC50 [1] [µM] | IC50 [2] [µM] | melting point [°C] | IC50 [3] [µM] | Topoisomerase I inhibitory effect (gel electrophoresis) (DNA topoisomerase I) | IC50 ([3]; NIH3T3, heading: IC50 NIH3T3) [µM] | IC50 (Topo II) [µM]
1 | CCN1CCN(C(=O)CSc2nnc(-c3ccc4nc(-c5ccc(O)cc5)[nH]c4c3)n2CC)CC1 [4a, 2-((4-Ethyl-5-(2-(4-hydroxyphenyl)-1H-benzo[d]imidazol-6-yl)-4H-1,2,4-triazol-3-yl)thio)-1-(4-ethylpiperazin-1-yl)ethanone] | 21.8 ± 1.04 | > 100 | 223.5 | 64.8 ± 1.96 | – | – | –
2 | CCn1c(SCC(=O)N2CCN(c3ccccc3)CC2)nnc1-c1ccc2nc(-c3ccc(O)cc3)[nH]c2c1 [4b, 2-((4-Ethyl-5-(2-(4-hydroxyphenyl)-1H-benzo[d]imidazol-6-yl)-4H-1,2,4-triazol-3-yl)thio)-1-(4-phenylpiperazin-1-yl)ethanone] | 7.34 ± 0.21 | 42.1 ± 2.1 | 319 | 56.7 ± 1.18 | significant inhibitory activity | – | –
3 | CCn1c(SCC(=O)N2CCN(c3ccccn3)CC2)nnc1-c1ccc2nc(-c3ccc(O)cc3)[nH]c2c1 [4c, 2-((4-Ethyl-5-(2-(4-hydroxyphenyl)-1H-benzo[d]imidazol-6-yl)-4H-1,2,4-triazol-3-yl)thio)-1-(4-(2-pyridinyl)piperazin-1-yl)ethanone] | 15.8 ± 0.63 | 24 ± 2.4 | 312.4 | 32.2 ± 0.74 | – | – | –
4 | CCn1c(SCC(=O)N2CCN(c3ncccn3)CC2)nnc1-c1ccc2nc(-c3ccc(O)cc3)[nH]c2c1 [4d, 2-((4-Ethyl-5-(2-(4-hydroxyphenyl)-1H-benzo[d]imidazol-6-yl)-4H-1,2,4-triazol-3-yl)thio)-1-(4-(2-pyrimidinyl)piperazin-1-yl)ethanone] | 54.4 ± 1.84 | > 100 | 144 | 80.5 ± 2.76 | – | – | –
5 | CCN1CCN(C(=O)CSc2nnc(-c3ccc4nc(-c5ccc(OC)cc5)[nH]c4c3)n2CC)CC1 [4e, 2-((4-Ethyl-5-(2-(4-methoxyphenyl)-1H-benzo[d]imidazol-6-yl)-4H-1,2,4-triazol-3-yl)thio)-1-(4-ethylpiperazin-1-yl)ethanone] | 75.7 ± 2.55 | > 100 | 112.7 | 77.7 ± 2.47 | – | – | –
6 | CCn1c(SCC(=O)N2CCN(c3ccccc3)CC2)nnc1-c1ccc2nc(-c3ccc(OC)cc3)[nH]c2c1 [4f, 2-((4-Ethyl-5-(2-(4-methoxyphenyl)-1H-benzo[d]imidazol-6-yl)-4H-1,2,4-triazol-3-yl)thio)-1-(4-phenylpiperazin-1-yl)ethanone] | 69.4 ± 3.04 | > 100 | 153.8 | 92.8 ± 3.06 | – | – | –
7 | CCn1c(SCC(=O)N2CCN(c3ccccn3)CC2)nnc1-c1ccc2nc(-c3ccc(OC)cc3)[nH]c2c1 [4g, 2-((4-Ethyl-5-(2-(4-methoxyphenyl)-1H-benzo[d]imidazol-6-yl)-4H-1,2,4-triazol-3-yl)thio)-1-(4-(2-pyridinyl)piperazin-1-yl)ethanone] | 87.2 ± 3.97 | > 100 | 204.3 | 85.9 ± 2.92 | – | – | –
8 | CCn1c(SCC(=O)N2CCN(c3ncccn3)CC2)nnc1-c1ccc2nc(-c3ccc(OC)cc3)[nH]c2c1 [4h, 2-((4-Ethyl-5-(2-(4-methoxyphenyl)-1H-benzo[d]imidazol-6-yl)-4H-1,2,4-triazol-3-yl)thio)-1-(4-(2-pyrimidinyl)piperazin-1-yl)ethanone] | 4.56 ± 0.18 | 13.2 ± 0.46 | 190.5 | 74.4 ± 2.68 | significant inhibitory activity | – | –
9 | CC[C@@]1(O)C(=O)OCc2c1cc1n(c2=O)Cc2cc3ccccc3nc2-1 [camptothecin, reference compound] | – | – | – | – | strong inhibitory effect as a topoisomerase poison | – | –
10 | COc1cccc2c1C(=O)c1c(O)c3c(c(O)c1C2=O)C[C@@](O)(C(=O)CO)C[C@@H]3O[C@H]1C[C@H](N)[C@H](O)[C@H](C)O1 [doxorubicin, reference compound] | – | – | – | – | – | 1.06 ± 0.00917 | –
11 | CN[C@@H]1C[C@H]2O[C@@](C)([C@@H]1OC)n1c3ccccc3c3c4c(c5c6ccccc6n2c5c31)C(=O)NC4 [staurosporine] | – | – | – | – | – | – | 4.64

Continued, in another order:

Row | IC50 [1] [µM] | IC50 [2] [µM] | melting point [°C] | Compound | IC50 [3] [µM] | Topoisomerase I inhibitory effect (gel electrophoresis) (DNA topoisomerase I) | IC50 ([3]; NIH3T3, heading: IC50 NIH3T3) [µM] | IC50 (Topo II) [µM]
12 | 33 ± 1.42 | 39.4 ± 2.58 | 144.3 | CCOc1ccc(-c2nc3ccc(-c4nnc(SCC(=O)N5CCN(CC)CC5)n4CC)cc3[nH]2)cc1 [4i, 2-((4-Ethyl-5-(2-(4-ethoxyphenyl)-1H-benzo[d]imidazol-6-yl)-4H-1,2,4-triazol-3-yl)thio)-1-(4-ethylpiperazin-1-yl)ethanone] | 30.6 ± 1.08 | – | – | –
13 | 54.1 ± 2.18 | > 100 | 118.8 | CCOc1ccc(-c2nc3ccc(-c4nnc(SCC(=O)N5CCN(c6ccccc6)CC5)n4CC)cc3[nH]2)cc1 [4j, 2-((4-Ethyl-5-(2-(4-ethoxyphenyl)-1H-benzo[d]imidazol-6-yl)-4H-1,2,4-triazol-3-yl)thio)-1-(4-phenylpiperazin-1-yl)ethanone] | 69.5 ± 2.85 | – | – | –
14 | 24.9 ± 1.21 | 64.6 ± 2.66 | 162.2 | CCOc1ccc(-c2nc3ccc(-c4nnc(SCC(=O)N5CCN(c6ccccn6)CC5)n4CC)cc3[nH]2)cc1 [4k, 2-((4-Ethyl-5-(2-(4-ethoxyphenyl)-1H-benzo[d]imidazol-6-yl)-4H-1,2,4-triazol-3-yl)thio)-1-(4-(2-pyridinyl)piperazin-1-yl)ethanone] | 46.4 ± 1.21 | – | – | –
15 | 12.4 ± 0.54 | 38.8 ± 1.82 | 140.8 | CCOc1ccc(-c2nc3ccc(-c4nnc(SCC(=O)N5CCN(c6ncccn6)CC5)n4CC)cc3[nH]2)cc1 [4l, 2-((4-Ethyl-5-(2-(4-ethoxyphenyl)-1H-benzo[d]imidazol-6-yl)-4H-1,2,4-triazol-3-yl)thio)-1-(4-(2-pyrimidinyl)piperazin-1-yl)ethanone] | 35.7 ± 1.11 | – | – | –
16 | 0.422 ± 0.02 | 1.05 ± 0.3 | – | CCOc1ccc(-c2nc3ccc(-c4nc5cc(N6CCN(C)CC6)ccc5[nH]4)cc3[nH]2)cc1 [Hoechst 33342, reference compound] | 13 ± 0.598 | strong inhibitory effect as a topoisomerase poison | – | –
